Laboratory results published in patent publication US20250257051A1, “SUBSTITUTED PYRIMIDINE COMPOUNDS AS TYK2 INHIBITORS” (1910 Genetics Inc., priority 2022, published 2025).
Where a name gives a salt, the structure may show the parent alone.

Biological target: human TYK2 (JH2domain-pseudokinase) (Homo sapiens (Human), UniProt P29597)
Test: TYK2 JH2 Domain Binding Assay (KINOMEscan competition binding)
Details: KINOMEscan; 11-point 3-fold dilution, top concentration 30,000 nM; Kd measurements in duplicate; read-out: TYK JH2 (Kd)
Method: Binding constants for compounds disclosed herein may be determined by the KINOMEscan® assay developed by DiscoveRx. KINOMEscan® is based on a competition binding assay that quantitatively measures the ability of a compound to compete with an immobilized, active-site directed ligand. The assay is performed by combining three components: DNA-tagged kinase; immobilized ligand; and a test compound. The ability of the test compound to compete with the immobilized ligand is measure via quantitative PCR of the DNA tag.
Binding constants for compounds disclosed herein against the JH2 domain are determined by the following protocol for a KINOMEscan® assay (DiscoveRx). A fusion protein of a partial length construct of human TYK2 (JH2domain-pseudokinase) (amino acids G556 to D888 based on reference sequence NP 003322.3) and the DNA binding domain of NFkB is expressed in transiently transfected HEK293 cells. From these HEK 293 cells, extracts are prepared in M-PER extraction buffer (Pierce) in the presence of Protease Inhibitor Cocktail Complete (Roche) and Phosphatase Inhibitor Cocktail Set II (Merck) per manufacturers' instructions. The TYK2 (JH2domain-pseudokinase) fusion protein is labeled with a chimeric double-stranded DNA tag containing the NFkB binding site (5′-GGGAATTCCC-3′) fused to an amplicon for qPCR readout, which is added directly to the expression extract (the final concentration of DNA-tag in the binding reaction is 0.1 nM).
Streptavidin-coated magnetic beads (Dynal M280) are treated with a biotinylated small molecule ligand for 30 minutes at room temperature to generate affinity resins for the binding assays. The liganded beads are blocked with excess biotin and washed with blocking buffer (SeaBlock (Pierce), 1% BSA, 0.05% Tween 20, 1 mM DTT) to remove unbound ligand and to reduce nonspecific binding.
Extracts are used directly in binding assays without any enzyme purification steps at a >10,000-fold overall stock dilution (final DNA tagged enzyme concentration<0.1 nM). Extracts are loaded with DNA-tag and diluted into the binding reaction in a two-step process. First extracts are diluted 1:100 in 1× binding buffer (PBS/0.05% Tween 20/10 mM DTT/0.1% BSA/[…] sonicated salmon sperm DNA) containing 10 nM DNA-tag. This dilution is allowed to equilibrate at room temperature for 15 minutes and then subsequently diluted 1:100 in 1× binding buffer. Test compounds are prepared as 111× stocks in 100% DMSO. Kds are determined using an 11-point 3-fold compound dilution series with three DMSO control points. All compounds for Kd measurements are distributed by acoustic transfer (non-contact dispensing) in 100% DMSO. The compounds are then diluted directly into the assays such that the final concentration of DMSO is 0.9%. All reactions performed in polypropylene 384-well plates. Each is a final volume of 0.02 mL. Assays are incubated with shaking for 1 hour at room temperature. Then the beads are pelleted and washed with wash buffer (lx PBS, 0.05% Tween 20) to remove displaced kinase and test compound. The washed beads are re-suspended in elution buffer (lx PBS, 0.05% Tween 20, 0.5 μM non-biotinylated affinity ligand) and incubated at room temperature with shaking for 30 minutes. The kinase concentration in the eluates is measured by qPCR. qPCR reactions are assembled by adding 2.5 μL of kinase eluate to 7.5 μL of qPCR master mix containing 0.15 μM amplicon primers and 0.15 μM amplicon probe. The qPCR protocol consists of a 10-minute hot start at 95° C., followed by 35 cycles of 95° C. for 15 seconds, 60° C. for 1 minute.
Test compounds are prepared as 111× stocks in 100% DMSO. Kds are determined using an 11-point 3-fold compound dilution series with three DMSO control points. All compounds for Kd measurements are distributed by acoustic transfer (non-contact dispensing) in 100% DMSO. The compounds are then diluted directly into the assays such that the final concentration of DMSO is 0.9%. […]

human TYK2 (JH2domain-pseudokinase), sequence (P29597 556-888): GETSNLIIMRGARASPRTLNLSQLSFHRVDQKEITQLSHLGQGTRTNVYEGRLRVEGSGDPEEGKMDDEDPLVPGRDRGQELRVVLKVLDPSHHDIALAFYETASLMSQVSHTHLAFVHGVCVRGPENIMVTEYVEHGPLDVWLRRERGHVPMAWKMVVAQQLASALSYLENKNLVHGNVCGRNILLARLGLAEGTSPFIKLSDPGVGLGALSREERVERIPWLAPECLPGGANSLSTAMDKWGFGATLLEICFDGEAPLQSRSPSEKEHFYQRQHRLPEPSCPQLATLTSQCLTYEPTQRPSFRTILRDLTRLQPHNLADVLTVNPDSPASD

Row | Kd | SMILES
1 | 0.11 nM | CNC(=O)[C@@H]1CCN(c2ncc(C(N)=O)c(Nc3cccc(-c4ncc(F)cn4)c3OC)n2)C1 [Compound 53, (R)-4-((3-(5-fluoropyrimidin-2-yl)-2-methoxyphenyl)amino)-2-(3-(methylcarbamoyl)pyrrolidin-1-yl)pyrimidine-5-carboxamide]
2 | 210 nM | CNC(=O)c1cnc(N2CCN(C(C)=O)CC2C)nc1Nc1ccccc1S(C)(=O)=O (stereo not drawn) [Compound 76, 2-(4-acetyl-2-methylpiperazin-1-yl)-N-methyl-4-((2-(methylsulfonyl)phenyl)amino)pyrimidine-5-carboxamide]
3 | 2500 nM | CCOC(=O)C1CCN(c2ncc(C(=O)NC)c(Nc3ccc(C4CC4)nc3)n2)CC1 [Compound 20, Ethyl 1-(4-((6-cyclopropylpyridin-3-yl)amino)-5-(methylcarbamoyl)pyrimidin-2-yl)piperidine-4-carboxylate]
4 | 3.9 nM | CNC(=O)c1cnc(N2CC[C@H](C(=O)NC)C2)nc1Nc1cccc(-c2ncc(F)cn2)c1OC [Compound 7, (S)-4-((3-(5-fluoropyrimidin-2-yl)-2-methoxyphenyl)amino)-N-methyl-2-(3-(methylcarbamoyl)pyrrolidin-1-yl)pyrimidine-5-carboxamide]
5 | 160 nM | CNC(=O)c1cnc(N2CCC(C(=O)O)CC2)nc1Nc1ccccc1S(C)(=O)=O [Compound 68, 1-(5-(methylcarbamoyl)-4-((2-(methylsulfonyl)phenyl)amino)pyrimidin-2-yl)piperidine-4-carboxylic Acid]
6 | 11000 nM | CNC(=O)c1cnc(N2CCC(C(=O)NC)C2)nc1NC(=O)c1n[nH]c2c(OC)cccc12 (stereo not drawn) [Compound 56, 7-methoxy-N-(5-(methylcarbamoyl)-2-(3-(methylcarbamoyl)pyrrolidin-1-yl)pyrimidin-4-yl)-1H-indazole-3-carboxamide]
7 | 0.82 nM | CCOC(=O)C1CCN(c2ncc(C(N)=O)c(Nc3cccc(-c4ncc(F)cn4)c3OC)n2)CC1 [Compound 39, Ethyl 1-(5-carbamoyl-4-((3-(5-fluoropyrimidin-2-yl)-2-methoxyphenyl)amino)pyrimidin-2-yl)piperidine-4-carboxylate]
8 | 0.5 nM | CNC(=O)C1CN(c2ncc(C(N)=O)c(Nc3cccc(-c4ncc(F)cn4)c3OC)n2)C1 [Compound 48, 4-((3-(5-fluoropyrimidin-2-yl)-2-methoxyphenyl)amino)-2-(3-(methylcarbamoyl)azetidin-1-yl)pyrimidine-5-carboxamide]
9 | 2.3 nM | CCOC(=O)C1CCN(c2ncc(C(=O)NC)c(Nc3cccc(-c4ncc(F)cn4)c3OC)n2)CC1 [Compound 28, Ethyl 1-(4-((3-(5-fluoropyrimidin-2-yl)-2-methoxyphenyl)amino)-5-(methylcarbamoyl)pyrimidin-2-yl)piperidine-4-carboxylate]
10 | 200 nM | CCOC(=O)C1CCN(c2ncc(C(N)=O)c(Nc3ccccc3OC)n2)CC1 [Compound 45, Ethyl 1-(5-carbamoyl-4-((2-methoxyphenyl)amino)pyrimidin-2-yl)piperidine-4-carboxylate]
11 | 4500 nM | CNC(=O)c1cnc(N2CCCN(C(=O)OC(C)(C)C)CC2)nc1Nc1cccc(-c2ncc(F)cn2)c1OC [Compound 72, Tert-Butyl 4-(4-((3-(5-fluoropyrimidin-2-yl)-2-methoxyphenyl)amino)-5-(methylcarbamoyl)pyrimidin-2-yl)-1,4-diazepane-1-carboxylate]
12 | 1800 nM | COc1ccccc1Nc1nc(N2CCCN(C(C)=O)CC2)ncc1C(N)=O [Compound 58, 2-(4-acetyl-1,4-diazepan-1-yl)-4-((2-methoxyphenyl)amino)pyrimidine-5-carboxamide]
13 | 2.6 nM | CCOC(=O)C1CCN(c2ncc(C(N)=O)c(Nc3ccccc3S(C)(=O)=O)n2)CC1 [Compound 16, Ethyl 1-(5-carbamoyl-4-((2-(methylsulfonyl)phenyl)amino)pyrimidin-2-yl)piperidine-4-carboxylate]
14 | 54 nM | CNC(=O)[C@H]1CCN(c2ncc(C(N)=O)c(Nc3ccc(C4CC4)nc3)n2)C1 [Compound 3, (S)-4-((6-cyclopropylpyridin-3-yl)amino)-2-(3-(methylcarbamoyl)pyrrolidin-1-yl)pyrimidine-5-carboxamide]
15 | 1700 nM | CS(=O)(=O)c1ccccc1Nc1nc(N2CCCNCC2)ncc1C(N)=O [Compound 79, 2-(1,4-diazepan-1-yl)-4-((2-(methylsulfonyl)phenyl)amino)pyrimidine-5-carboxamide hydrochloride]
16 | 38 nM | CNC(=O)[C@@H]1CCN(c2ncc(C(N)=O)c(Nc3ccc(C4CC4)nc3)n2)C1 [Compound 4, (R)-4-((6-cyclopropylpyridin-3-yl)amino)-2-(3-(methylcarbamoyl)pyrrolidin-1-yl)pyrimidine-5-carboxamide]
17 | 180 nM | CC1CN(C(=O)OC(C)(C)C)CCN1c1ncc(C(N)=O)c(Nc2ccccc2S(C)(=O)=O)n1 (racemic) [Compound 55, Tert-Butyl 4-(5-carbamoyl-4-((2-(methylsulfonyl)phenyl)amino)pyrimidin-2-yl)-3-methylpiperazine-1-carboxylate]
18 | 1500 nM | CNC(=O)c1cnc(N2CC(C(=O)NC)C2)nc1Nc1ccc(C2CC2)nc1 [Compound 51, 4-((6-cyclopropylpyridin-3-yl)amino)-N-methyl-2-(3-(methylcarbamoyl)azetidin-1-yl)pyrimidine-5-carboxamide]
19 | 2.3 nM | CNC(=O)c1cnc(N2CC(C(=O)NC)C2)nc1Nc1cccc(-c2ncc(F)cn2)c1OC [Compound 49, 4-((3-(5-fluoropyrimidin-2-yl)-2-methoxyphenyl)amino)-N-methyl-2-(3-(methylcarbamoyl)azetidin-1-yl)pyrimidine-5-carboxamide]
20 | 950 nM | CC(=O)N1CCCN(c2ncc(C(N)=O)c(Nc3ccccc3S(C)(=O)=O)n2)CC1 [Compound 80, 2-(4-acetyl-1,4-diazepan-1-yl)-4-((2-(methylsulfonyl)phenyl)amino)pyrimidine-5-carboxamide]
21 | 4600 nM | CNC(=O)c1cnc(N2CCCNCC2)nc1Nc1ccccc1OC [Compound 29, 2-(1,4-diazepan-1-yl)-4-((2-methoxyphenyl)amino)-N-methylpyrimidine-5-carboxamide]
22 | 12 nM | NC(=O)c1cnc(N2CCCC2)nc1Nc1ccc(C2CC2)nc1 [Compound 2, 4-((6-cyclopropylpyridin-3-yl)amino)-2-(pyrrolidin-1-yl)pyrimidine-5-carboxamide]
23 | 170 nM | CNC(=O)c1cnc(N2CCCN(C(C)=O)CC2)nc1Nc1cccc(-c2ncc(F)cn2)c1OC [Compound 77, 2-(4-acetyl-1,4-diazepan-1-yl)-4-((3-(5-fluoropyrimidin-2-yl)-2-methoxyphenyl)amino)-N-methylpyrimidine-5-carboxamide]
24 | 760 nM | CCOC(=O)C1CCN(c2ncc(C(=O)NC)c(Nc3ccccc3OC)n2)CC1 [Compound 34, Ethyl 1-(4-((2-methoxyphenyl)amino)-5-(methylcarbamoyl)pyrimidin-2-yl)piperidine-4-carboxylate]
25 | 1400 nM | CC(=O)N1CCCN(c2ncc(C(N)=O)c(Nc3ccc(C4CC4)nc3)n2)CC1 [Compound 64, 2-(4-acetyl-1,4-diazepan-1-yl)-4-((6-cyclopropylpyridin-3-yl)amino)pyrimidine-5-carboxamide]
26 | 4000 nM | CNC(=O)c1cnc(N2CCN(C(C)=O)CC2C)nc1Nc1ccc(C2CC2)nc1 (stereo not drawn) [Compound 70, 2-(4-acetyl-2-methylpiperazin-1-yl)-4-((6-cyclopropylpyridin-3-yl)amino)-N-methylpyrimidine-5-carboxamide]

Same assay, conditions: Table 4: pyrimidinyl compound of Formula I versus compounds with a different heteroaryl core; read-out: TYK JH2 (Kd)

Row | Kd | SMILES
27 | 170 nM | CNC(=O)c1cnc(N2CCC(C(=O)NC)C2)nc1Nc1ccc(C2CC2)nc1 (stereo not drawn) [drawing 147]
